Results published in patent publication US7300943B2, “GSK-3 inhibitors” (Pfizer Inc., priority 2003, dated 2007).
Where a name gives a salt, the structure may show the parent alone.

Target: T1, GSK-3 (Homo sapiens, UniProt P49841)
T1 construct: made in house
Experiment: GSK-3 inhibition, cell-free 33P-ATP peptide substrate SPA assay
Assay type: biochemical
Settings: read-out: inhibitory activity, expressed as IC50's, against GSK-3
Experimental: The specific activities of the compounds of formula (I) in inhibiting GSK-3 can be determined in both cell-free and cell-based assays, both of which have been previously described in the relevant art. See, for example, U.S. Pat. Nos. 6,417,185 and 6,489,344, the disclosures of which are incorporated herein by reference in their entirety.
A cell-free assay can be generally carried out by incubating GSK-3 with a peptide substrate, radiolabeled ATP (e.g., for example, γ^33P- or γ^32P-ATP, both of which are available from Amersham; Arlington Heights, Ill.), magnesium ions, and the compound to be assayed. […] The amount of γ^33P or γ^32P remaining in each well after washing is then quantified to determine the amount of radiolabeled phosphate incorporated into the peptide substrate. […]
Another example of a GSK-3 assay, similar to the one described hereinabove, is as follows: enzyme activities are assayed as the incorporation of ^33P from gamma phosphate of ^33P-ATP (Amersham; Arlington Heights, Ill.; catalog #AH-9968) into biotinylated peptide substrate PKTP-KKAKKL. […] The final concentration of ATP is 0.5 μM (final specific radioactivity of 4 μCi/nmol), and the final concentration of substrate is 0.75 μM. […] Radioactivity associated with the beads is then quantified by scintillation counting. […]

T1 sequence (P49841 whole entry): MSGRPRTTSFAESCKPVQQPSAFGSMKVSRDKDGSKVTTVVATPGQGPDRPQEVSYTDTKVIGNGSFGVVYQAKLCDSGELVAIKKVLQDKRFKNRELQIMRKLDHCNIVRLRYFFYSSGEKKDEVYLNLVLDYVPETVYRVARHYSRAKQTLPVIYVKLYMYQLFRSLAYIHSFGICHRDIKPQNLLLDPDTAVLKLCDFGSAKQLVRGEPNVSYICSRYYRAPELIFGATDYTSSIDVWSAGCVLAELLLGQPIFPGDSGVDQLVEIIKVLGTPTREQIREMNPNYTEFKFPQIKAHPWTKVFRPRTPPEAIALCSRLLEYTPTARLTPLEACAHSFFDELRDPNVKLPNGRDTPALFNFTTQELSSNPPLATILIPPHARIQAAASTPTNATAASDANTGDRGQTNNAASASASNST

Q: `O=c1cc(-c2ccccc2)c2c(C3CCC3)[nH]nc2[nH]1` [Example 5, 3-Cyclobutyl-4-phenyl-2,7-dihydro-pyrazolo[3,4-b]yridin-6-one hydrochloride] was tested. Which IC50 did it give?
A: 36 nM
